Results as given in patent US20200352918A1, “COMPOUNDS AND METHODS FOR TREATING OR PREVENTING FIBROSIS” (priority 2019, published 2020).

System: iFA phenotype of mesenchymal-like cells on 13 kPa hydrogels
Assay: iFA-prevention phenotypic high-content drug screen (iFA model)
Assay type: cell-based, human
Description: Mesenchymal-like cells were cultured on 13 kPa functionalized polyacrylamide gels that were prepared as follows. 187.5 μl of 40% acrylamide, 60 μl of 2% bis-acrylamide and 8.55 μl of sodium bisulfate in a final volume of 990 μl of water was incubated for 20 min at room temperature to degas the mixture. To this mixture, 0.10% ammonium persulfate and 0.15% TEMED were added, mixed and 100 μl of the solution was added onto a 0.4% 3-(Trimethoxysily) propyl methacrylate pH 3.5 treated coverslip. A 2% dimethyl dichlorosilane in chloroform treated round glass coverslip was then inverted on the acrylamide solution and allowed to polymerize for 15 min between the two surfaces. The top coverslip was gently removed, and the bottom coverslips with the hydrogel were transferred to appropriate multi-well low adherent tissue culture plate containing coupling buffer (0.1 M sodium phosphate dibasic, 0.1 M sodium phosphate monobasic) pH 8. To functionalize the hydrogel, 1 part of 0.1 M p-benzoquinone in dioxane was added to the hydrogels containing 4 parts of coupling buffer and incubated at 37° C. for 30 min. The gel was then successively washed with 20% dioxane in water, water, 0.1 M sodium acetate buffer at pH 4.0 containing 1.0 M sodium chloride, 0.1 M sodium bicarbonate solution at pH 8.5 containing 1.0 M sodium chloride, and finally with coupling buffer at pH 7.5. The hydrogels were then coated with 0.1% gelatin for 2 hrs prior to seeding the cells. Cells were seeded at a density of 3000 cells/cm^2.
A phenotypic high-content drug screen was prepared to identify compounds capable of preventing the iFA phenotype in a 96-well format. An ImageXpress XL high-throughput imager with a 4× Plan objective (N/A 0.20) was used with image based focusing. Briefly, 100 μL media were plated in each well of 96 well plate using a Thermo Multidrop non-contact dispenser. Using a custom V&P pin tool mounted to a Beckman FX liquid handler, 1.5 μL compounds or DMSO were added. Mesenchymal-like cells were added as a suspension using the Multidrop at a density of 3.5×10^3 cells/well. The resulting compound concentration was 10 μM. Cells were imaged after 7 days of incubation at 37° C. and 5% CO2: A final of 0.5 μg/ml of Calcein AM and/or 10 μg/ml propidium iodide (viability dye) with 1 μg/ml Hoechst 33342 were added and imaged using the ImageXpress XL system. Data mining was performed using a custom module consisting of the following steps: The image background was removed using a top-hat filter with 25 μm round shape polisher. Next, cellular aggregates and individual spindle-shaped cells were identified. Aggregates of cells were defined by size with a cut-off of 60 to 200 micron and an intensity of at least 200 gray scales over background. Individual spindle-shaped cells were identified as smaller objects with cut-offs from 15 to 100 micron and a lower intensity of at least 70 gray scales over background.
Additional morphometric measurements were made by counting labeled cell nuclei and measuring total area covered with cells per well. The data resulting from the screen were batch exported through MetaXpress and uploaded into a Collaborative Drug Discovery (CDD) cloud based database (Ekins and Bunin, 2013, Methods in molecular biology 993, 139-154.). Hits were selected on a cut-off of more than 3 standard deviations from mean using data normalized to reference wells in each plate. IC50 values (the half maximal inhibitory concentration) from confirmation experiments were calculated from dose-response signal curves using the Prism software (GraphPad Software).
Signal-to-background (S/B) ratio, standard variation and variation coefficients were calculated as the signal of DMSO treated wells divided by the signal of the hit compound (AA5) treated wells. […]

**Q.** Which results are given for `Cc1c(C(=O)Nc2nc3ccccc3s2)sc2nc3cc4c(cc3cc12)OCO4` [AA5]?
**A.** Prevention of the iFA phenotype (0.6 μM-10 μM AA5, Calcein AM / Hoechst 33342 (FIG. 17A)): Full prevention of phenotype was seen at low micromolar concentrations; Dose response (20 point dose course, picomolar to millimolar): +++ (+++ = strong effect); IC50 (Homo sapiens, FIG. 16B, read-out: IC50 (dose response, iFA phenotype)): 900 nM; Efficacy in secondary screen (assay repeated with compound sourced commercially or from additional library materials): +++ (+++ = strong effect); Efficacy in primary screen (library compound plated with cells on day 1 on hydrogel, phenotype on day 7, 10 μM): +++ (+++ = strong effect)
